Legend:
[1] = tested on: B16 melanoma 4A5 cells; test: Melanin production inhibitory effect (theophylline-induced melanin production); assay type: cell-based, mouse; conditions: melanin production inhibition rate, sample at a concentration of 10 mM or less, 3 days culture, theophylline 1 mmol/L, N=4
How it was run: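 Mouse B16 4A5 cells cultured 24 h in D-MEM/10% FBS, then 3 days with 1 mmol/L theophylline (final) plus sample at 10 mM or less. Melanin measured by alkali solubilization (1 mol/L NaOH, 60° C, 30 min, A405) against synthetic melanin standard, normalized to BCA protein. Inhibition rate relative to normal and control groups, scored as graded ranges; N=4.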

[2] = tested on: Normal human dermal fibroblasts; test: Collagen production promoting effect (ELISA of supernatant); assay type: cell-based; conditions: amount of collagen produced, % with control group taken as 100%; sample at 10 mmol/L or less, 48 hours, N=3
How it was run: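 Fibroblasts in D-MEM with 5% FBS were pre-incubated 24 h, then exposed to samples for 48 h. Free collagen in supernatant quantified by ELISA (N=3), expressed as % of control (control = 100%) at ≤10 mmol/L, scored ± (<100%), + (100-120%), ++ (120%).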

[3] = Stability test (residual rate by HPLC, odor, coloring); assay type: physicochemical; conditions: 1% aqueous solution; for Coloring / Odor: total score of 10 panelists
How it was run: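 A 1% aqueous solution of each test sample was brought to pH 6 with dilute potassium hydroxide aqueous solution, sealed in a 50 mL screw tube, and stored. Residual rate was calculated from HPLC peak area on a Shimadzu liquid chromatograph. Ten panelists scored odor and coloring on a 1–3 scale each, and the summed scores were classified.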

[4] = tested on: Normal human dermal fibroblasts (NHDF); test: Hyaluronic acid production promoting effect (ELISA of supernatant); assay type: cell-based; conditions: amount of hyaluronic acid produced, % with control group taken as 100%; sample at 10 mmol/L or less, 48 hours, N=3
How it was run: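 NHDF pre-incubated 24 h, then exposed to samples at 10 mmol/L or less in serum-free D-MEM for 48 h. Supernatant hyaluronic acid quantified by ELISA, N=3, expressed as % of control (100%) and scored ± (<100%), + (100-120%), ++ (120-150%), +++ (150%).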

[5] = tested on: Normal human epidermal keratinocytes; test: Antioxidant test (ROS production after H2O2 treatment, DCFHDA probe); assay type: cell-based; conditions: sample at a concentration of 10 mM or less, 24 h culture, 0.2 mM H2O2 for 2 hours, ROS per unit protein, N=4
Experimental: Normal human epidermal keratinocytes were seeded in a 96-well plate using KG2 medium to a cell density of 2.0×10^4 cells/well. After 24 hours of pre-incubation, samples adjusted to a predetermined concentration with KG2 medium were added to each well. After 24 hours of culture and removal of the medium, the wells were washed with HBSS(−) and the ROS-reactive fluorescent probe DCFHDA was allowed to incorporate for 30 minutes. The wells were washed again with HBSS(—), treated with 0.2 mM H2O2, and cultured for 2 hours. The fluorescence intensity was measured, and the amount of ROS produced per unit protein was calculated by dividing the fluorescence intensity by the amount of protein quantified by the BCA method.
The antioxidant effect when the sample was measured at a concentration of 10 mM or less was expressed as follows. The measurement was performed with N=4. • <20%: ± • 20-40%: + • 40-70%: ++ • 70-100%: +++

[6] = pH 6, stored at 50° C., four weeks later
[7] = pH 6, stored at 50° C., two weeks later

Residual rate ([3]; pH 6, 50° C., initial) | Residual rate [3, 6] | Residual rate [3, 7] | Structure (SMILES) | Melanin production inhibition effect [1] | Collagen production promoting effect [2] | Coloring ([3]; pH 6, 50° C., initial) | Odor ([3]; pH 6, 50° C., initial) | Coloring [3, 6] | Odor [3, 6] | Coloring [3, 7] | Odor [3, 7] | Hyaluronic acid production promoting effect [4] | Antioxidant Effects [5]
⊚ (⊚: 90% or more) | Δ (Δ: 60% or more, less than 80%) | ◯ (◯: 80% or more, less than 90%) | O=C1O[C@H]([C@@H](O)CO)C(OCC(O)CO)=C1O (some centres unmarked) [3-O-glyceryl ascorbic acid, reference compound] | + (20-40%: +) | + (100-120%: +) | ◯ (◯: Total score of 10 panelists is 25 or more) | ◯ (◯: Total score of 10 panelists is 20-24) | Δ (Δ: Total score of 10 panelists is 16-24) | Δ (Δ: Total score of 10 panelists is 16-19) | Δ (Δ: Total score of 10 panelists is 16-24) | Δ (Δ: Total score of 10 panelists is 16-19) | + (100-120%: +) | + (20-40%: +)
 |  |  | O=C1O[C@H]([C@@H](O)CO)C(O)=C1OCC(O)CO (some centres unmarked) [2-O-glyceryl ascorbic acid, reference compound] | + (20-40%: +) | + (100-120%: +) |  |  |  |  |  |  | + (100-120%: +) | ± (<20%: ±)
⊚ (⊚: 90% or more) | ⊚ (⊚: 90% or more) | ⊚ (⊚: 90% or more) | CC(C)(O)COC1=C(O)C(=O)O[C@@H]1[C@@H](O)CO [Synthesis Example 2, 3-O-(2-hydroxyisobutyl) ascorbic acid] | + (20-40%: +) | + (100-120%: +) | ◯ (◯: Total score of 10 panelists is 25 or more) | ◯ (◯: Total score of 10 panelists is 20-24) | ◯ (◯: Total score of 10 panelists is 25 or more) | ◯ (◯: Total score of 10 panelists is 20-24) | ◯ (◯: Total score of 10 panelists is 25 or more) | ◯ (◯: Total score of 10 panelists is 20-24) | + (100-120%: +) | ++ (40-70%: ++)
 |  |  | CCOC1=C(OCC(C)(C)O)[C@@H]([C@@H](O)CO)OC1=O [Synthesis Example 18, 2-O-ethyl-3-O-(2-hydroxyisobutyl) ascorbic acid] | +++ (60-100%: +++) | ++ (120%: ++) |  |  |  |  |  |  | ++ (120-150%: ++) | ++ (40-70%: ++)
⊚ (⊚: 90% or more) | ⊚ (⊚: 90% or more) | ⊚ (⊚: 90% or more) | CC(C)(O)COC1=C(O)[C@@H]([C@@H](O)CO)OC1=O [Synthesis Example 1, 2-O-(2-hydroxyisobutyl) ascorbic acid] | ++ (40-60%: ++) | ++ (120%: ++) | ◯ (◯: Total score of 10 panelists is 25 or more) | ◯ (◯: Total score of 10 panelists is 20-24) | ◯ (◯: Total score of 10 panelists is 25 or more) | ◯ (◯: Total score of 10 panelists is 20-24) | ◯ (◯: Total score of 10 panelists is 25 or more) | ◯ (◯: Total score of 10 panelists is 20-24) | + (100-120%: +) | ++ (40-70%: ++)
 |  |  | CCOC1=C(OCC(C)(C)O)C(=O)O[C@@H]1[C@@H](O)CO [Synthesis Example 3, 2-O-(2-hydroxyisobutyl)-3-O-ethylascorbic acid] | +++ (60-100%: +++) | ++ (120%: ++) |  |  |  |  |  |  |  | ++ (40-70%: ++)
⊚ (⊚: 90% or more) | ⊚ (⊚: 90% or more) | ⊚ (⊚: 90% or more) | CCCCCCCCCCCCCCOC1=C(OCC(C)(C)O)[C@@H]([C@@H](O)CO)OC1=O [Synthesis Example 24, 2-O-tetradecyl-3-O-(2-hydroxyisobutyl) ascorbic acid] | +++ (60-100%: +++) | ++ (120%: ++) | ◯ (◯: Total score of 10 panelists is 25 or more) | ◯ (◯: Total score of 10 panelists is 20-24) | ◯ (◯: Total score of 10 panelists is 25 or more) | ◯ (◯: Total score of 10 panelists is 20-24) | ◯ (◯: Total score of 10 panelists is 25 or more) | ◯ (◯: Total score of 10 panelists is 20-24) | ++ (120-150%: ++) | 
⊚ (⊚: 90% or more) | ⊚ (⊚: 90% or more) | ⊚ (⊚: 90% or more) | CC(C)(O)COC1=C(OCC(O)c2ccccc2)C(C(O)CO)OC1=O (centres unmarked) [Synthesis Example 38, 2-O-(2-hydroxyisobutyl)-3-O-(2-hydroxyethylbenzene) ascorbic acid] | ++ (40-60%: ++) | ++ (120%: ++) | ⊚ | ◯ (◯: Total score of 10 panelists is 20-24) | ◯ (◯: Total score of 10 panelists is 25 or more) | ◯ (◯: Total score of 10 panelists is 20-24) | ◯ (◯: Total score of 10 panelists is 25 or more) | ◯ (◯: Total score of 10 panelists is 20-24) | ++ (120-150%: ++) | 

From US20260001853A1, “ASCORBIC ACID DERIVATIVE OR SALT THEREOF, AND COSMETIC THEREOF” (SEIWA KASEI COMPANY, LIMITED, priority 2022, published 2026)
